Reference: patent US20190352358A1, “COMPOUNDS, COMPOSITIONS AND USES THEREOF FOR IMPROVEMENT OF BONE DISORDERS” (ALIZE PHARMA III SAS, priority 2017, published 2019)
Residues, ends and D or L forms follow the SMILES beside them. No end group written: not given here. *: point of attachment. C16 diacid = O=C(O)CCCCCCCCCCCCCCC(=O)*; Arachidoyl = CCCCCCCCCCCCCCCCCCCC(=O)*; Stearoyl = CCCCCCCCCCCCCCCCCC(=O)*; Palmitoyl = CCCCCCCCCCCCCCCC(=O)*

Key:
[1] = Stability of HBD1 fragments in human plasma; type: in vitro ADME; conditions: for remaining at 24 h, 1 μg/mL / remaining at 48 h, 1 μg/mL: human, human K2EDTA plasma; for remaining at 24 h, 1 μg/mL / remaining at 48 h, 1 μg/mL / Remaining parent peptide in human plasma 24 hours post spike / Remaining parent peptide in human plasma 48 hours post spike: spiked at 1 μg/mL, 37° C.; for remaining at 24 h, 1 μg/mL: read-out: Remaining parent peptide in human plasma 24 hours post spike; for remaining at 48 h, 1 μg/mL: read-out: Remaining parent peptide in human plasma 48 hours post spike; for stability in human plasma (in words): 24 and 48 hours incubation at 37° C.
Description: The peptides were spiked at 1 μg/mL (peptide backbone) into pre-warmed human K2EDTA plasma (at 37° C.) and incubated for up to 48 hours. Aliquots of plasma were extracted at specific time points (0, 24 and 48 hours post spike). Extraction was performed with acetonitrile:water (75:25, v/v) for HBD1 (1-13), HBD1 (1-13) with palmitic acid at the N-terminus (C16:0), HBD1 (3-11) with palmitic acid at the N-terminus (C16:0)) and HBD1 (3-11) with stearic acid at the N-terminus (C18:0) or with acetonitrile:water:formic acid (75:25:0.1, v/v/v) for HBD1 (3-11) and cyclic HBD1 (3-11). The peptides were analyzed using developed LC (C18 reverse phase column)—positive ion electrospray MS/MS methods specific to each peptide. The peak area at each time point was expressed as a percentage of the value obtained for the t=0 minutes time point.

[2] = Pharmacokinetics in male Sprague Dawley rats after intravenous and subcutaneous injection (Example 10); type: in vivo; conditions: 1 μmol net peptide/kg, rat; for exposure after administration by either dose route (in words): iv and sc
Description: The peptides were reconstituted in saline (0.9% NaCl). Three male Sprague Dawley rats were used per group. Intravenous doses were administered into a lateral tail vein at the dose of 1 μmol net peptide/kg. Subcutaneous doses were administered into the right flank of each animal, also at the dose of 1 μmol net peptide/kg. Following dosing, serial whole blood samples (ca. 0.25 mL) were collected from a lateral tail vein into K2EDTA treated containers. Following each blood sample collection, samples were placed into a cooling block at 4° C. Samples were collected prior to dosing then at 2, 5, 15 and 30 minutes then 1, 2, 4, 6 and 8 and 24 hours post dose for intravenous injection and at 15 and 30 minutes then 1, 2, 4, 6, 8 and 24 hours post dose for subcutaneous injection.
Blood samples were centrifuged at 10000×g for 2 minutes at 4° C. and resultant plasma aspirated off into clean fully, labelled tubes. Plasma samples were snap frozen following aspiration then stored at −80° C. Peptides were extracted and analyzed as described in Example 9. The limits of quantification of these methods were 0.001 nmol/mL for cyclic HBD1 (3-11) and HBD1 (3-11) and 0.003 nmol/mL for HBD1 (1-13). All values below these limits of quantification were considered as zero.

[3] = system: MC-3T3 E1 clone 4 (CL4) osteoblast cells; assay: Osteocalcin expression during in vitro osteoblast differentiation, acylated and cyclic analogs (Example 7); type: cell-based; conditions: Table 18; test peptide 1 μg/L; 18-21 day interval
Description: Each acylated peptide was tested in a biologic assay measuring its ability to stimulate differentiation of osteoblast cells over a 18-21 day interval as assessed by the stimulation of osteocalcin protein synthesis. MC-3T3 E1 clone 4 (CL4) osteoblast cells were obtained from ATCC (Manassas, Va., USA). Cells were cultured in α-MEM containing 10% fetal bovine serum (FBS; Thermo Fisher Scientific, Pittsburgh, Pa., USA). After confluency, culture medium was changed to differentiation medium (DM), which contained 10% FBS plus 50 μg/mL ascorbic acid and 4 mM β-glycerol phosphate, with or without a test peptide (1 μg/L). Fresh DM, with or without test peptide, was applied every 72 hours. The cell monolayers were lysed in a modified radioimmunoprecipitation assay (RIPA) buffer. Total cellular protein in the lysates was determined using BCA (Thermo Fisher Scientific, Rockford, Ill., USA). Cell proteins are separated on SDS-PAGE gel and transferred on PVDF membrane for analysis. Osteocalcin detection was performed using anti-osteocalcin antibody at 1:200 dilution (Santa Cruz Biotechnology, Inc, Santa Cruz, Calif., USA) and visualized using enhanced chemiluminescence (Thermo Fisher Scientific, Rockford, Ill., USA).
In a separate experiment, the effect of cyclization was examined on of the HBD1 (3-11) peptide. The cyclic HBD1 (3-11) was synthetized and tested on the in vitro osteoblast differentiation assay.

[4] = Pharmacokinetics of acylated analogs in male Sprague Dawley rats after subcutaneous injection (Example 11); type: in vivo; design: AUC(0-t): concentration or dose not given beside the values; conditions: sc, rat; for AUC(0-t) / Cmax / Tmax: male, Sprague Dawley, plasma; for AUC(0-t) / Cmax / Tmax / Tlast (last time point with detectable peptide): Table 24
Description: The peptides were reconstituted in saline (0.9% NaCl). Three male Sprague Dawley rats (approximately 6 weeks of age) were used per group. Subcutaneous doses were administered into the right flank of each animal […]. Following dosing, serial whole blood samples (ca. 0.3 mL) were collected from retro-orbital sinus into K2EDTA treated containers. Following each blood sample collection, samples were placed into a cooling block at 4° C. Samples were collected prior to dosing then at 15 and 30 minutes then 1, 2, 4, 6, 8 and 24 hours post dose for subcutaneous injection. Blood samples were centrifuged at 3500×rpm for 10 minutes at 4° C. and resultant plasma aspirated off into clean fully, labelled tubes. Plasma samples were snap frozen following aspiration then stored at −80° C. The peptides were extracted with acetonitrile:water (75:25, v/v) and analyzed using developed LC-MS/MS methods as described in Example 9. The limits of detection of these methods are 0.003 nmol/mL for HBD1 (1-13) with palmitic acid at the N-terminus (C16:0), 0.0008 nmol/mL for HBD1 (3-11) with palmitic acid at the N-terminus (C16:0), 0.0070 nmol/mL for HBD1 (3-11) with stearic acid at the N-terminus (C18:0), and 0.0015 nmol/mL for HBD1 (3-11) with myristic acid at the N-terminus (C14:0), HBD1 (3-11) with arachidic acid at the N-terminus (C20:0), HBD1 (3-11) with palmitic diacid at the N-terminus (C16:0-diacid), HBD1 (3-11) with palmitic acid at the C-terminus (C16:0). All values below these limits of quantification were considered as zero.

[5] = male, Sprague Dawley, plasma, iv
[6] = male, Sprague Dawley, plasma, sc

KHHLGLEEPKKLR [compound 1]
remaining at 24 h, 1 μg/mL [1]: 29%
remaining at 48 h, 1 μg/mL [1]: 18%

HLGLEEPKK [SEQ ID NO: 10, HLGLEEPKK]
stability in human plasma (in words) [1]: very stable
Remaining parent peptide in human plasma 24 hours post spike [1]: 92%
Remaining parent peptide in human plasma 48 hours post spike [1]: 87%
exposure after administration by either dose route (in words) [2]: no quantifiable exposure

CCCCCCCCCCCCCCCC(=O)N[C@@H](Cc1c[nH]cn1)C(=O)N[C@@H](Cc1c[nH]cn1)C(=O)N[C@@H](CC(C)C)C(=O)NCC(=O)N[C@@H](CC(C)C)C(=O)N[C@@H](CCC(=O)O)C(=O)N[C@@H](CCC(=O)O)C(=O)N1CCC[C@H]1C(=O)N[C@@H](CCCCN)C(=O)N[C@@H](CCCCN)C(=O)O [compound 68] (Palmitoyl-HHLGLEEPKK-OH; C-terminus assumed)
Fold increase vs DM ± SE [3]: 2.52 ± 0.52 fold

CC(C)C[C@H](NC(=O)CNC(=O)[C@H](CC(C)C)NC(=O)[C@H](Cc1c[nH]cn1)NC(=O)CCCCCCCCCCCCCCC(=O)O)C(=O)N[C@@H](CCC(=O)O)C(=O)N[C@@H](CCC(=O)O)C(=O)N1CCC[C@H]1C(=O)N[C@@H](CCCCN)C(=O)N[C@@H](CCCCN)C(=O)O [compound 75] ({C16 diacid}-HLGLEEPKK-OH; C-terminus assumed)
Fold increase vs DM ± SE [3]: 3.39 ± 0.19 fold
AUC(0-t) [4]: 1.14 µM·h
Cmax [4]: 580 nM
Tmax [4]: 0.25 h
Tlast (last time point with detectable peptide) [4]: 8 h

HLGLEEPKK [compound 10]
remaining at 24 h, 1 μg/mL [1]: 92%
remaining at 48 h, 1 μg/mL [1]: 87%

CCCCCCCCCCCCCCCCCC(=O)N[C@@H](Cc1c[nH]cn1)C(=O)N[C@@H](Cc1c[nH]cn1)C(=O)N[C@@H](CC(C)C)C(=O)NCC(=O)N[C@@H](CC(C)C)C(=O)N[C@@H](CCC(=O)O)C(=O)N[C@@H](CCC(=O)O)C(=O)N1CCC[C@H]1C(=O)N[C@@H](CCCCN)C(=O)N[C@@H](CCCCN)C(=O)O [compound 69] (Stearoyl-HHLGLEEPKK-OH; C-terminus assumed)
Fold increase vs DM ± SE [3]: 2.48 ± 0.27 fold

CCCCCCCCCCCCCCCC(=O)N[C@@H](Cc1c[nH]cn1)C(=O)N[C@@H](CC(C)C)C(=O)NCC(=O)N[C@@H](CC(C)C)C(=O)N[C@@H](CCC(=O)O)C(=O)N[C@@H](CCC(=O)O)C(=O)N1CCC[C@H]1C(=O)N[C@@H](CCCCN)C(=O)N[C@@H](CCCCN)C(=O)O [compound 72] (Palmitoyl-HLGLEEPKK-OH)
stability in human plasma (in words) [1]: similar
remaining at 24 h, 1 μg/mL [1]: 94%
remaining at 48 h, 1 μg/mL [1]: 87%
AUC(0-t) [4]: 1.34 µM·h
Cmax [4]: 350 nM
Tmax [4]: 1 h
Tlast (last time point with detectable peptide) [4]: 8 h

CCCCCCCCCCCCCCCC(=O)N[C@@H](Cc1c[nH]cn1)C(=O)N[C@@H](CC(C)C)C(=O)NCC(=O)N[C@@H](CC(C)C)C(=O)N[C@@H](CCC(=O)O)C(=O)N[C@@H](CCC(=O)O)C(=O)N1CCC[C@H]1C(=O)N[C@@H](CCCCN)C(=O)N[C@@H](CCCCN)C(=O)O [SEQ ID NO: 72, C16:0-HLGLEEPKK] (Palmitoyl-HLGLEEPKK-OH; C-terminus assumed)
bioavailability ([2]; male, Sprague Dawley, plasma, subcutaneous, sc vs iv, read-out: F (bioavailability)): 35%
AUC(0-t) [2, 5]: 4.46 µM·h
Cmax [2, 5]: 7890 nM
Tmax [2, 5]: 0.033 h
AUC(0-t) [2, 6]: 1.57 µM·h
Cmax [2, 6]: 410 nM
Tmax [2, 6]: 1 h

CCCCCCCCCCCCCCCCCCCC(=O)N[C@@H](Cc1c[nH]cn1)C(=O)N[C@@H](Cc1c[nH]cn1)C(=O)N[C@@H](CC(C)C)C(=O)NCC(=O)N[C@@H](CC(C)C)C(=O)N[C@@H](CCC(=O)O)C(=O)N[C@@H](CCC(=O)O)C(=O)N1CCC[C@H]1C(=O)N[C@@H](CCCCN)C(=O)N[C@@H](CCCCN)C(=O)O [compound 70] (Arachidoyl-HHLGLEEPKK-OH; C-terminus assumed)
Fold increase vs DM ± SE [3]: 2.11 ± 0.11 fold

CCCCCCCCCCCCCCCCCCCC(=O)N[C@@H](Cc1c[nH]cn1)C(=O)N[C@@H](CC(C)C)C(=O)NCC(=O)N[C@@H](CC(C)C)C(=O)N[C@@H](CCC(=O)O)C(=O)N[C@@H](CCC(=O)O)C(=O)N1CCC[C@H]1C(=O)N[C@@H](CCCCN)C(=O)N[C@@H](CCCCN)C(=O)O [SEQ ID NO: 74, C20:0-HLGLEEPKK] (Arachidoyl-HLGLEEPKK-OH; C-terminus assumed)
peptide exposure compared among acylated peptides (in words) [4]: lower exposure than HBD1 (3-11) with stearic acid at the N-terminus (C18:0)

CCCCCCCCCCCCCCCC(=O)N[C@@H](CCCCN)C(=O)N[C@@H](Cc1c[nH]cn1)C(=O)N[C@@H](Cc1c[nH]cn1)C(=O)N[C@@H](CC(C)C)C(=O)NCC(=O)N[C@@H](CC(C)C)C(=O)N[C@@H](CCC(=O)O)C(=O)N[C@@H](CCC(=O)O)C(=O)N1CCC[C@H]1C(=O)N[C@@H](CCCCN)C(=O)N[C@@H](CCCCN)C(=O)N[C@@H](CC(C)C)C(=O)N[C@@H](CCCNC(=N)N)C(=O)O [compound 78] (Palmitoyl-KHHLGLEEPKKLR-OH)
remaining at 24 h, 1 μg/mL [1]: 58%
remaining at 48 h, 1 μg/mL [1]: 52%
AUC(0-t) [4]: 0.01 µM·h
Cmax [4]: 10 nM
Tmax [4]: 6 h
Tlast (last time point with detectable peptide) [4]: 8 h

CCCCCCCCCCCCCCCC(=O)N[C@@H](CCCCN)C(=O)N[C@@H](Cc1c[nH]cn1)C(=O)N[C@@H](Cc1c[nH]cn1)C(=O)N[C@@H](CC(C)C)C(=O)NCC(=O)N[C@@H](CC(C)C)C(=O)N[C@@H](CCC(=O)O)C(=O)N[C@@H](CCC(=O)O)C(=O)N1CCC[C@H]1C(=O)N[C@@H](CCCCN)C(=O)N[C@@H](CCCCN)C(=O)N[C@@H](CC(C)C)C(=O)N[C@@H](CCCNC(=N)N)C(=O)O [SEQ ID NO: 78, C16:0-KHHLGLEEPKKLR] (Palmitoyl-KHHLGLEEPKKLR-OH; C-terminus assumed)
Remaining parent peptide in human plasma 48 hours post spike [1]: 52%

CC(C)C[C@@H]1NC(=O)CNC(=O)[C@H](CC(C)C)NC(=O)[C@H](Cc2c[nH]cn2)NC(=O)[C@H](CCCCN)NC(=O)[C@H](CCCCN)NC(=O)[C@@H]2CCCN2C(=O)[C@H](CCC(=O)O)NC(=O)[C@H](CCC(=O)O)NC1=O [compound 77] (cyclo(EEPKKHLGL))
stability in human plasma (in words) [1]: similar
remaining at 24 h, 1 μg/mL [1]: 98%
remaining at 48 h, 1 μg/mL [1]: 95%

KHHLGLEEPKKLR [SEQ ID NO: 1, KHHLGLEEPKKLR, reference compound]
stability in human plasma (in words) [1]: markedly degraded
Remaining parent peptide in human plasma 24 hours post spike [1]: 29%
Remaining parent peptide in human plasma 48 hours post spike [1]: 18%
exposure after administration by either dose route (in words) [2]: no quantifiable exposure
